Reference: patent US20240191303A1, “METHODS FOR OPTIMIZING THE TREATMENT OF COLORECTAL CANCER” (Brown University, priority 2021, published 2024)
Entries after “also recorded” stand apart in the source; their conditions may differ. Where two headings read alike, the source gives them in different places.

What was measured:
[1] = tested on: HCT116 and HCT116 p53−/− cells; test: Cytokine profiling of cell supernatants (Luminex 200), p53 status not separated; type: cell-based, human; conditions: for VEGF production/release: both HCT116 and HCT116 p53−/−
Experimental: A total of 4×10^4 HCT116 or HCT116 p53^−/− cells were plated per well of a 24-well plate and incubated twelve-sixteen hours before treatment with 55-fluorouracil, CPT-11, oxaliplatin, cisplatin, or various combination treatments at the appropriate IC50 (combination treatments received each drug at their IC50). Cell supernatants were collected at forty-eight hours after treatment and stored at −20° C. Samples were prepared and run in triplicate on a Luminex 200 Instrument (R&D LX200-XPON-RUO). Sample preparation was conducted, and instrument settings were selected based on the Human Magnetix Luminex Assay (R&D LXSAHM) protocol.

[2] = tested on: HCT116 and HCT116 p53−/− cells; test: Clariom D microarrays, RNA expression relative to untreated cells; type: cell-based, human; conditions: IC50 dose, 8 h; for BTG2 induction, rank in p53-dependent gene signature: fold change>2
Experimental: Microarrays. Total cellular RNA was isolated, and Clariom™ D microarrays were used to measure changes in RNA expression relative to untreated cells. A total of 7×10^5 HCT116 and HCT116 p53^−/− cells were plated in a 6-well plate and incubated for twelve-sixteen hours before being treated with 5-fluorouracil, CPT-11, oxaliplatin, or cisplatin at their respective IC50 doses for eight hours. Cell pellets were collected and split into two tubes, one for western blot analysis and one for RNA extraction. Samples were randomized, and RNA was isolated (Qiagen 74134) in five batches to ensure a high-quality RNA product. Acceptable RNA concentration and quality were verified with Nanodrop and Bioanalyzer measurements. Clariom D Microarrays (ThermoFisher 902923) were conducted according to the manufacturer's protocol in two batches on randomized samples to limit batch effects.
Statistical analysis. TAC software was used to calculate fold changes and statistical significance. Microarrays Applied Biosystems Transcriptomic Analysis Console (TAC) software was used to calculate fold-changes in gene expression relative to the untreated control cells. p-values<0.05 were considered significant.
To define a pan-drug signature and to evaluate heterogeneity in the p53 response on a whole-transcriptome scale, the inventors treated HCT116 and HCT116 p53^−/− cells with each of the four drugs at their IC50 for eight hours. The RNA expression relative to an untreated control was measured using microarray analysis. Upregulation of p53 in these samples and equal induction of cell death at this dose and time point was validated by Western blot and CellTiterGlo, respectively, before microarray analysis. […] Each internal control had tightly clustered triplicates. Quality control measurements were also determined to be satisfactory for further analysis.

[3] = tested on: HCT116 p53−/− cells; test: Cytokine profiling of cell supernatants (Luminex 200), p53−/− cells; type: cell-based, human; conditions: IC50, 48 h
Experimental: (§1) Cytokine profiling. A total of 4×10^4 HCT116 or HCT116 p53^−/− cells were plated per well of a 24-well plate and incubated twelve-sixteen hours before treatment with […], CPT-11, oxaliplatin, cisplatin, or various combination treatments at the appropriate IC50 (combination treatments received each drug at their IC50). Cell supernatants were collected at forty-eight hours after treatment and stored at −20° C. Samples were prepared and run in triplicate on a Luminex 200 Instrument (R&D LX200-XPON-RUO). Sample preparation was conducted, and instrument settings were selected based on the Human Magnetix Luminex Assay (R&D LXSAHM) protocol.
(§2) Cytokine profiling. Results were analyzed in GraphPad prism, and statistical significance across drugs was determined separately for wild-type and ^−/− cells with a one-way ANOVA. p-values<0.05 were considered significant.
(§3) HCT116 and HCT116 p53^−/− cells were treated with the four drugs (5-FU, CPT-11, oxaliplatin, and cisplatin) at their IC50s and combination treatment groups received two-three drugs, each at their individual IC50 concentration.

[4] = oxaliplatin-treated mice; cited from earlier work
[5] = tested on: HCT116 cells (wild-type); test: Cytokine profiling of cell supernatants (Luminex 200), wild-type cells; type: cell-based, human; conditions: IC50, 48 h
Experimental: as §1, §2, §3

[6] = cited from earlier work
[7] = drug at IC50, 48 h, HCT116 vs HCT116 p53−/−
[8] = drug(s) each at IC50, 48 h, vs control

O=c1[nH]cc(F)c(=O)[nH]1 [5-fluorouracil, 5-Fluorouracil]
p53 dependence of TRAILR2 regulation [1, 7]: p53-independent | VEGF production/release ([1]; drug at IC50, 48 h): downregulated | TRAILR2 level in cell supernatant ([1]; drug at IC50, 48 h, vs control): down-regulated | BAX transcript regulation [2]: slight preferential upregulation; also recorded: preferentially upregulated | histone gene regulation [2]: strikingly unique down-regulation; also recorded: uniquely down-regulated | transcripts of the 5-fluorouracil/CPT-11/oxaliplatin-specific signature (e.g., SERPINE1, CEACAM1, C1orf116) [2]: upregulated | BTG2 induction, rank in p53-dependent gene signature [2]: top upregulated gene; also recorded: most highly induced gene

CCc1c2c(nc3ccc(OC(=O)N4CCC(N5CCCCC5)CC4)cc13)-c1cc3c(c(=O)n1C2)COC(=O)[C@]3(O)CC [CPT-11, Irinotecan]
VEGF production/release ([1]; drug at IC50, 48 h): downregulated | TRAILR2 level in cell supernatant ([1]; drug at IC50, 48 h, vs control): not affected | IL-8 level in cell supernatant [1, 8]: moderate increase | DRAM1 transcript regulation [2]: p53-dependent, CPT-11-specific regulation | FDXR transcript regulation [2]: p53-dependent, CPT-11-specific regulation | TLR3 transcript regulation [2]: p53-dependent, CPT-11-specific regulation | transcripts of the 5-fluorouracil/CPT-11/oxaliplatin-specific signature (e.g., SERPINE1, CEACAM1, C1orf116) [2]: upregulated | BTG2 induction, rank in p53-dependent gene signature [2]: second most highly induced gene

N.N.[Cl][Pt][Cl] [cisplatin]
p53 dependence of TRAILR2 regulation [1, 7]: despite p53 status | VEGF production/release ([1]; drug at IC50, 48 h): downregulated | TRAILR2 level in cell supernatant ([1]; drug at IC50, 48 h, vs control): increased | ferritin level in cell supernatant [1, 8]: increase | ferritin level in cell supernatant [3]: large increase | PITPNC1 transcript regulation [2]: downregulation | PRPF39 transcript regulation [2]: upregulation | ROR1 transcript regulation [2]: downregulation | transcripts of the 5-fluorouracil/CPT-11/oxaliplatin-specific signature (e.g., SERPINE1, CEACAM1, C1orf116) [2]: unaffected | BTG2 induction, rank in p53-dependent gene signature [2]: top upregulated gene; also recorded: most highly induced gene

CN(C)C(=N)N=C(N)N [metformin]
reversal of oxaliplatin-induced neuronal damage [4]: reversible

O=C1[O][Pt]2([NH][C@@H]3CCCC[C@H]3[NH]2)[O]C1=O [oxaliplatin, Oxaliplatin]
IL-8 level in cell supernatant [1]: increase | TRAILR2 level in cell supernatant [1]: down-regulated | p53 dependence of TRAILR2 regulation [1]: dependent on p53 | VEGF production/release ([1]; drug at IC50, 48 h): downregulated | IL-8 level in cell supernatant [5]: did not affect | IL-8 level in cell supernatant [3]: induced | ATF3 transcript regulation [2]: Upregulation | FOS transcript regulation [2]: uniquely upregulated | SAT1 transcript regulation [2]: uniquely upregulated | SUSD2 transcript regulation [2]: uniquely upregulated | transcripts of the 5-fluorouracil/CPT-11/oxaliplatin-specific signature (e.g., SERPINE1, CEACAM1, C1orf116) [2]: upregulated | BTG2 induction, rank in p53-dependent gene signature [2]: top upregulated gene; also recorded: most highly induced gene | peripheral neuropathy, share of patients [6]: 30-50% | neuronal damage (upregulation of FOS and ATF3) [4]: neuronal damage
